This test relates to hypoxia-induced pulmonary hypertension. Put plainly: Hypoxia-induced pulmonary hypertension in rats (hypobaric-hypoxic vs ambient air, 3 weeks). The conditions noted are these: for % wall thickness (medial hypertrophy index, pulmonary artery) / RV/LV + S(%) (right ventricle/left ventricular + septum weight ratio) / mPAP (mean pulmonary arterial pressure): 50 mg/kg intraperitoneal once daily for 3 weeks; for mPAP (mean pulmonary arterial pressure): right cardiac catheterization. Format: in vivo, Spraque-Dawley rats. The source says: This study is designed to investigate the effects of PDGF receptor signal transduction blockade on the development of hypoxia-induced pulmonary hypertension using a PDGF receptor-selective tyrosine kinase inhibitor, e.g. COMPOUND I, COMPOUND I mesylate.
The methodology as described by Ortiz L A, Champion H C, Lasky J A and col.
Pulmonary arterial pressure (PAP) can be measured in anesthetized mice with the use of a single-lumen catheter (Nu-Med, Hopkinton, N.Y.). The catheter (145 mm in length, 0.25 mm OD) has a specially curved tip to facilitate passage through the right heart, main pulmonary artery, and the left or right pulmonary artery. Immediately after placement of the pulmonary catheter (30 min in average), pressure in the main pulmonary artery is measured with a pressure transducer (Schneider/Namic, Glenns Falls, N.Y.), and mean PAP is derived electronically and recorded continuously. For the determination of pulmonary arterial wedge pressure, the catheter is advanced to the left or right pulmonary artery and wedged with continuous measurement of the pressure waveform.
Lung morphology and evaluation of right ventricular hypertrophy can be performed as below. The heart is perfused with 0.9% NaCl to remove residual blood, and the right lung is fixed in situ for 2 h by intratracheal instillation of 10% neutral formalin (Sigma, St. Louis, Mo.) at a constant pressure of 30 cmH2O and was preserved in fixative for 24 h. Lung tissues are then sectioned sagittally and embedded in paraffin. Sections (4 μm thick) are generated and mounted on positively charged slides (Fisher Scientific, Pittsburgh, Pa.). Slides are stained with hematoxylin-eosin for light microscopic examination. Immediately after death, hearts are resected to evaluate right ventricular hypertrophy. The atria are removed up to the plane of the atrial-ventricular valves. The right ventricle (RV) free wall is then dissected free of the left ventricle (LV) and septum. The RV and LV plus septum are weighed and the RV-to-LV+septum ratio is calculated.
Ten Spraque-Dawley rats are exposed to hypobaric-hypoxic (HH) conditions and ten ambient air (AA) animals are used as controls. The rats in both conditions are randomized to receive intraperitoneal injections with either once daily COMPOUND I (50 mg/kg) or placebo for 3 weeks. Right cardiac catheterizations are used to evaluate the mean pulmonary arterial pressure (mPAP). Subsequently, the rats are sacrificed for the evaluation of their medial hypertrophy index (% wall thickness of the pulmonary artery), and right ventricular hypertrophy (right ventricle/left ventricular +septum weight ratio; RV/LV+S).

With `Cc1ccc(NC(=O)c2ccc(CN3CCN(C)CC3)cc2)cc1Nc1nccc(-c2cccnc2)n1` [COMPOUND I], where the note is “ambient air (AA) rats”, the “% wall thickness (medial hypertrophy index, pulmonary artery)” value is listed as 10.32 ± 0.33%; the “RV/LV + S(%) (right ventricle/left ventricular + septum weight ratio)” value stood at 24.60 ± 1.08%; the “mPAP (mean pulmonary arterial pressure)” value amounted to 16.20 ± 1.93 mmHg. Besides, under “hypobaric-hypoxic (HH) rats”, the “% wall thickness (medial hypertrophy index, pulmonary artery)” value turned out to be 14.77 ± 0.73%; the “RV/LV + S(%) (right ventricle/left ventricular + septum weight ratio)” value was 35.85 ± 1.29%; the “mPAP (mean pulmonary arterial pressure)” value is given as 19.50 ± 1.32 mmHg. The “lowering of the index of % wall thickness” value (rats, 50 mg/kg i.p. once daily, 3 weeks, p=0.001) worked out at 59%. For the same compound, the “reduction of hypoxic-induced pulmonary hypertension” value (rats, 50 mg/kg i.p. once daily, 3 weeks, p=0.002) worked out at 80%. Further, where the note is “rats, 50 mg/kg i.p. once daily, 3 weeks, p=0.006”, the “reduction of RV hypertrophy” value is recorded as 46%.

The values are drawn from patent US20060154936A1, “Use of n-'5-'4-(4-methylpiperaziomethyl)-benzoylamido!-2-methylphenyl!-4-(3-pyridyl)2-pyridine-amine for the treatment of pulmonary hypertension” (priority 2002, published 2006).
